Measurements: publication PMC6471342, “Synthesis of Thymidine Phosphorylase Inhibitor Based on Quinoxaline Derivatives and Their Molecular Docking Study” (Molecules, 2019)
Read-outs that look alike come from different tables or passages of the source.

Target: T1, thymidine phosphorylase/PD-ECGF (E. coli) (Escherichia coli, UniProt P07650)
T1 construct: purchased
Test: Thymidine phosphorylase inhibition assay (absorbance at 290 nm)
Format: biochemical
Conditions: for IC50: Table 1, triplicate; for thymidine phosphorylase inhibition, result in words: compared with standard 7-Deazaxanthine
Protocol: Since human TP is not easy to obtain, we used commercially available recombinant E. coli TP. The primary sequence of TP is frequently preserved throughout evolution as mammalian TP is reported to share 39% sequence resemblance with the TP of E. coli. The mammalian enzyme also shared up to 70% resemblance with the active site residues, and three-dimensional structure of E. coli TP enzyme. The thymidine phosphorylase/PD-ECGF (E. coli) activity was determined by measuring the absorbance at 290 nm spectrophotometrically. The method was described in [50, 51]. In brief, the total reaction mixture of 200 µL contained 145 µL of potassium phosphate buffer (pH 7.4), 30 µL of enzyme (human and E. coli) at concentration 0.05 and 0.002 U, respectively, were incubated with 5 µL of test materials for 10 min at 25 °C in a microplate reader. After incubation, a pre-read at 290 nm was taken to deduce the absorbance of substrate particles. The substrate (20 µL, 1.5 mM), dissolved in potassium phosphate buffer, was immediately added to the plate and continuously read after 10, 20, and 30 min in a microplate reader (SpectraMax, Molecular Devices, CA, USA). All assays were performed in triplicate.
Reactions for above mentioned biological activities were carried out in triplicate. Results were then processed using SoftMax Pro 4.8 software (Molecular Devices, San Jose, CA, USA) and then by Microsoft Excel. The percent inhibition for above mentioned biological activities was calculated by following formula:Percent Inhibition = 100 − (ODtest compound/ODcontrol) × 100(1)

T1 sequence (P07650 whole entry): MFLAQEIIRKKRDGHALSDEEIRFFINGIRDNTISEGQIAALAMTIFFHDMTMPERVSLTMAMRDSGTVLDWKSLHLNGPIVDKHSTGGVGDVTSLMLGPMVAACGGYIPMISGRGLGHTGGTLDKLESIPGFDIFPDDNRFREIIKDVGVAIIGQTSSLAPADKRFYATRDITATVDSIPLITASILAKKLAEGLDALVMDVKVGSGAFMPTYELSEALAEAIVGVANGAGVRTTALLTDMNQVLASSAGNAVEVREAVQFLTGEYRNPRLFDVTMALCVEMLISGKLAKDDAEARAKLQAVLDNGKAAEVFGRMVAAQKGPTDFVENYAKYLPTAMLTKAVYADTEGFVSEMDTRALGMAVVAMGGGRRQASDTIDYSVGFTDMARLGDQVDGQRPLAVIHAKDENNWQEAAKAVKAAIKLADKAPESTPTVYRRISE

| Structure (SMILES) | IC50 (read-out: IC50 (µM ± SEM)) | thymidine phosphorylase inhibition, result in words | IC50 (read-out: IC50 (mM ± SEM)) |
| --- | --- | --- | --- |
| Fc1ccccc1-c1csc2nnc(-c3cnc4ccccc4n3)n12 [Compound 1, 5-(2-flourophenyl)-3(Quinoxalin-2yl)thiazolo[2,3-c][1,2,4]triazole] | 13.6 ± 0.4 µM | outstanding inhibition |  |
| Fc1cccc(-c2csc3nnc(-c4cnc5ccccc5n4)n23)c1 [Compound 2, 5-(3-flourophenyl)-3(Quinoxalin-2yl)thiazolo[2,3-c][1,2,4]triazole] | 26.1 ± 0.7 µM | outstanding inhibition |  |
| Fc1ccc(-c2csc3nnc(-c4cnc5ccccc5n4)n23)cc1 [Compound 3, 5-(4-flourophenyl)-3(Quinoxalin-2yl)thiazolo[2,3-c][1,2,4]triazole] | 18.1 ± 0.5 µM | outstanding inhibition |  |
| Clc1ccccc1-c1csc2nnc(-c3cnc4ccccc4n3)n12 [Compound 4, 5-(2-chlorophenyl)-3(Quinoxalin-2yl)thiazolo[2,3-c][1,2,4]triazole] | 27.4 ± 0.6 µM | outstanding inhibition |  |
| Clc1cccc(-c2csc3nnc(-c4cnc5ccccc5n4)n23)c1 [Compound 5, 5-(3-chlorophenyl)-3(Quinoxalin-2yl)thiazolo[2,3-c][1,2,4]triazole] | 33.4 ± 0.8 µM | outstanding inhibition |  |
| Clc1ccc(-c2csc3nnc(-c4cnc5ccccc5n4)n23)cc1 [Compound 6, 5-(4-chlorophenyl)-3(Quinoxalin-2yl)thiazolo[2,3-c][1,2,4]triazole] | 24.4 ± 0.6 µM | outstanding inhibition |  |
| O=[N+]([O-])c1ccccc1-c1csc2nnc(-c3cnc4ccccc4n3)n12 [Compound 7, 5-(2-nitrophenyl)-3(Quinoxalin-2yl)thiazolo[2,3-c][1,2,4]triazole] | 34.7 ± 0.8 µM | outstanding inhibition |  |
| O=[N+]([O-])c1ccc(-c2csc3nnc(-c4cnc5ccccc5n4)n23)cc1 [Compound 8, 5-(4-nitrophenyl)-3(Quinoxalin-2yl)thiazolo[2,3-c][1,2,4]triazole] | 47.5 ± 0.9 µM | moderate inhibition |  |
| Cc1ccccc1-c1csc2nnc(-c3cnc4ccccc4n3)n12 [Compound 9, 3-(quinoxalin-2-yl)-5-o-tolylthiazolo[2,3-c][1,2,4]triazole] | 56.4 ± 1.2 µM | moderate inhibition |  |
| Cc1cccc(-c2csc3nnc(-c4cnc5ccccc5n4)n23)c1 [Compound 10, 3-(quinoxalin-2-yl)-5-m-tolylthiazolo[2,3-c][1,2,4]triazole] |  | inactive |  |
| Cc1ccc(-c2csc3nnc(-c4cnc5ccccc5n4)n23)cc1 [Compound 11, 3-(quinoxalin-2-yl)-5-p-tolylthiazolo[2,3-c][1,2,4]triazole] |  | inactive |  |
| Oc1cccc(-c2csc3nnc(-c4cnc5ccccc5n4)n23)c1 [Compound 12, 3-(3-(quinoxalin-2-yl)thiazolo[2,3-c][1,2,4]triazol-5-yl)phenol] | 33.2 ± 0.75 µM | outstanding inhibition |  |
| Oc1ccc(-c2csc3nnc(-c4cnc5ccccc5n4)n23)cc1 [Compound 13, 4-(3-(quinoxalin-2-yl)thiazolo[2,3-c][1,2,4]triazol-5-yl)phenol] | 18.3 ± 0.55 µM | outstanding inhibition |  |
| Oc1ccc(-c2csc3nnc(-c4cnc5ccccc5n4)n23)c(O)c1 [Compound 14, 4-(3-(quinoxalin-2-yl)thiazolo[2,3-c][1,2,4]triazol-5-yl)benzene-1,3-diol] |  | outstanding inhibition | 13.2 ± 0.4 µM |
| Oc1ccc(O)c(-c2csc3nnc(-c4cnc5ccccc5n4)n23)c1 [Compound 15, 2-(3-(quinoxalin-2-yl)thiazolo[2,3-c][1,2,4]triazol-5-yl)benzene-1,4-diol] |  | outstanding inhibition | 15.2 ± 0.5 µM |
| Oc1ccc(-c2csc3nnc(-c4cnc5ccccc5n4)n23)cc1O [Compound 16, 4-(3-(quinoxalin-2-yl)thiazolo[2,3-c][1,2,4]triazol-5-yl)benzene-1,2-diol] |  | outstanding inhibition | 3.5 ± 0.2 µM |
| COc1ccc(-c2csc3nnc(-c4cnc5ccccc5n4)n23)c(O)c1 [Compound 17, 5-methoxy-2-(3-(quinoxalin-2-yl)thiazolo[2,3-c][1,2,4]triazol-5-yl)phenol] |  | outstanding inhibition | 24.2 ± 0.7 µM |
| COc1ccc(-c2csc3nnc(-c4cnc5ccccc5n4)n23)cc1O [Compound 18, 2-methoxy-5-(3-(quinoxalin-2-yl)thiazolo[2,3-c][1,2,4]triazol-5-yl)phenol] |  | outstanding inhibition | 16.9 ± 0.6 µM |
| COc1cccc(-c2csc3nnc(-c4cnc5ccccc5n4)n23)c1 [Compound 19, 5-(3-methoxyphenyl)-3-(quinoxalin-2-yl)thiazolo[2,3-c][1,2,4]triazole] |  | inactive |  |
| COc1ccc(-c2csc3nnc(-c4cnc5ccccc5n4)n23)cc1 [Compound 20, 5-(4-methoxyphenyl)-3-(quinoxalin-2-yl)thiazolo[2,3-c][1,2,4]triazole] |  | inactive |  |
| COc1ccc(O)c(-c2csc3nnc(-c4cnc5ccccc5n4)n23)c1 [Compound 21, 4-methoxy-2-(3-(quinoxalin-2-yl)thiazolo[2,3-c][1,2,4]triazol-5-yl)phenol] |  | outstanding inhibition | 26.2 ± 0.5 µM |
| c1cncc(-c2csc3nnc(-c4cnc5ccccc5n4)n23)c1 [Compound 22, 5-(pyridin-3-yl)-3-(quinoxalin-2-yl)thiazolo[2,3-c][1,2,4]triazole] |  | inactive |  |
| c1ccc2nc(-c3nnc4scc(-c5ccncc5)n34)cnc2c1 [Compound 23, 5-(pyridin-4-yl)-3-(quinoxalin-2-yl)thiazolo[2,3-c][1,2,4]triazole] |  | inactive |  |
| Oc1ccccc1-c1csc2nnc(-c3cnc4ccccc4n3)n12 [Compound 24, 2-(3-(quinoxalin-2-yl)thiazolo[2,3-c][1,2,4]triazol-5-yl)phenol] |  | outstanding inhibition | 13.1 ± 0.3 µM |
| Oc1cccc(-c2csc3nnc(-c4cnc5ccccc5n4)n23)c1O [Compound 25, 3-(3-(quinoxalin-2-yl)thiazolo[2,3-c][1,2,4]triazol-5-yl)benzene-1,2-diol] |  |  | 3.2 ± 0.1 µM |
